SMILES strings stand for the structures. The source made the active and inactive calls. The rule behind the calls is not given here. Residues, ends and D or L forms follow the SMILES beside them. *: point of attachment. Cbz = O=C(OCc1ccccc1)*

A short description of data set [1]: Cytotoxicity against human GES1 cells assessed as inhibition of cell growth incubated for 72 hrs by MTT assay. It counts as toxicity, cell-based. (In general: Tetrazolium assays rely on reduction of a dye to a coloured formazan, in cell work by metabolically active cells.)
In data set [2] the target is T1, von Hippel-Lindau disease tumor suppressor/Vascular endothelial growth factor receptor 2 (Homo sapiens, UniProt P35968+P40337). As to the kind of experiment: PROTAC activity at VHL/VEGFR2 in human HGC-27 cells assessed as reduction in VEGFR2 protein level by measuring maximal efficacy at 3.33 uM incubated for 24 hrs by Western blot analysis relative to control. It counts as cell-based. In general terms: A western blot detects proteins with antibodies after separation by electrophoresis.
Target sequence in this assay (P35968 20-1356 limits assumed): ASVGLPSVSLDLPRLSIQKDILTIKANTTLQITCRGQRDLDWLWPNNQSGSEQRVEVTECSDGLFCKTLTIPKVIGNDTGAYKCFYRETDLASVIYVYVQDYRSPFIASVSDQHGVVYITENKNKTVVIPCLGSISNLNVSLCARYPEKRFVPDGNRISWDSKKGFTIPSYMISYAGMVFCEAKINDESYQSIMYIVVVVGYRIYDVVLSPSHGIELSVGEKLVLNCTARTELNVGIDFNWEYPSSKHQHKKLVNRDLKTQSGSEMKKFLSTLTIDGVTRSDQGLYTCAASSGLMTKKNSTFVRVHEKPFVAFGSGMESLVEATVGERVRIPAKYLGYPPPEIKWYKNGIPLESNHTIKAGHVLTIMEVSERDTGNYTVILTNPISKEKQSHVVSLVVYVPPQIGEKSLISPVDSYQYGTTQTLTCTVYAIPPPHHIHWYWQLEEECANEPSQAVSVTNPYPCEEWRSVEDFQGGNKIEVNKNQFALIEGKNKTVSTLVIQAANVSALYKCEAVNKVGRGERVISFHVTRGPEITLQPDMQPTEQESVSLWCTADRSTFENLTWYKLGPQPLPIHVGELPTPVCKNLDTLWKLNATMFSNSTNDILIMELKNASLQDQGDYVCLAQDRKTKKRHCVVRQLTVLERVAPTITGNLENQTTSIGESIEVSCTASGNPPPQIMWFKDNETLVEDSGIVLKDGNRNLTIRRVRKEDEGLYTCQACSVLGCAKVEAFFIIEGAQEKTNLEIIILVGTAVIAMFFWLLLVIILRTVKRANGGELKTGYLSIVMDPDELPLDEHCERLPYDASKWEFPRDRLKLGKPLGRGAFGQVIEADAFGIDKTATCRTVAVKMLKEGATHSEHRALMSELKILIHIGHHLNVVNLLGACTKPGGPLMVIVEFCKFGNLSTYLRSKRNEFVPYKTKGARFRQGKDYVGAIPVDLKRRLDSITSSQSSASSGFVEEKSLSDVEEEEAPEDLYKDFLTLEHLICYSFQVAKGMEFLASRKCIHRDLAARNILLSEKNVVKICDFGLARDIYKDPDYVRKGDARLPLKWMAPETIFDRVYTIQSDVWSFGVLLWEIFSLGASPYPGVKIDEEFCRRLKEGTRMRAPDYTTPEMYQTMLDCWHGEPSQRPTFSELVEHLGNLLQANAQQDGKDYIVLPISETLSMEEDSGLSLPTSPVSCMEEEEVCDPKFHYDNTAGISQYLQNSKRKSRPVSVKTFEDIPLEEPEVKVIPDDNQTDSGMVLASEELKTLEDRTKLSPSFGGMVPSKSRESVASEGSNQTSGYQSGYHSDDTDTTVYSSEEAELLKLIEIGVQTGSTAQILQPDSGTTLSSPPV
Target sequence in this assay (P40337 whole entry partner): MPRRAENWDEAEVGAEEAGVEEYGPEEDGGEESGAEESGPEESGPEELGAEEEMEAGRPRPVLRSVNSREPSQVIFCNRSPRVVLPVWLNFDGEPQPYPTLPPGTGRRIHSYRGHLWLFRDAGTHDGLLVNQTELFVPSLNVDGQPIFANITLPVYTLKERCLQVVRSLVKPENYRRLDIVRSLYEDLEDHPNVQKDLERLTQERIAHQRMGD

For data set [3], the target named is T1, von Hippel-Lindau disease tumor suppressor/Vascular endothelial growth factor receptor 2. The data set is described as follows: PROTAC activity at VHL/VEGFR2 in human HGC-27 cells assessed as reduction in VEGFR2 protein level incubated for 24 hrs by Western blot analysis. It counts as cell-based.
Target sequence in this assay (P35968 whole entry): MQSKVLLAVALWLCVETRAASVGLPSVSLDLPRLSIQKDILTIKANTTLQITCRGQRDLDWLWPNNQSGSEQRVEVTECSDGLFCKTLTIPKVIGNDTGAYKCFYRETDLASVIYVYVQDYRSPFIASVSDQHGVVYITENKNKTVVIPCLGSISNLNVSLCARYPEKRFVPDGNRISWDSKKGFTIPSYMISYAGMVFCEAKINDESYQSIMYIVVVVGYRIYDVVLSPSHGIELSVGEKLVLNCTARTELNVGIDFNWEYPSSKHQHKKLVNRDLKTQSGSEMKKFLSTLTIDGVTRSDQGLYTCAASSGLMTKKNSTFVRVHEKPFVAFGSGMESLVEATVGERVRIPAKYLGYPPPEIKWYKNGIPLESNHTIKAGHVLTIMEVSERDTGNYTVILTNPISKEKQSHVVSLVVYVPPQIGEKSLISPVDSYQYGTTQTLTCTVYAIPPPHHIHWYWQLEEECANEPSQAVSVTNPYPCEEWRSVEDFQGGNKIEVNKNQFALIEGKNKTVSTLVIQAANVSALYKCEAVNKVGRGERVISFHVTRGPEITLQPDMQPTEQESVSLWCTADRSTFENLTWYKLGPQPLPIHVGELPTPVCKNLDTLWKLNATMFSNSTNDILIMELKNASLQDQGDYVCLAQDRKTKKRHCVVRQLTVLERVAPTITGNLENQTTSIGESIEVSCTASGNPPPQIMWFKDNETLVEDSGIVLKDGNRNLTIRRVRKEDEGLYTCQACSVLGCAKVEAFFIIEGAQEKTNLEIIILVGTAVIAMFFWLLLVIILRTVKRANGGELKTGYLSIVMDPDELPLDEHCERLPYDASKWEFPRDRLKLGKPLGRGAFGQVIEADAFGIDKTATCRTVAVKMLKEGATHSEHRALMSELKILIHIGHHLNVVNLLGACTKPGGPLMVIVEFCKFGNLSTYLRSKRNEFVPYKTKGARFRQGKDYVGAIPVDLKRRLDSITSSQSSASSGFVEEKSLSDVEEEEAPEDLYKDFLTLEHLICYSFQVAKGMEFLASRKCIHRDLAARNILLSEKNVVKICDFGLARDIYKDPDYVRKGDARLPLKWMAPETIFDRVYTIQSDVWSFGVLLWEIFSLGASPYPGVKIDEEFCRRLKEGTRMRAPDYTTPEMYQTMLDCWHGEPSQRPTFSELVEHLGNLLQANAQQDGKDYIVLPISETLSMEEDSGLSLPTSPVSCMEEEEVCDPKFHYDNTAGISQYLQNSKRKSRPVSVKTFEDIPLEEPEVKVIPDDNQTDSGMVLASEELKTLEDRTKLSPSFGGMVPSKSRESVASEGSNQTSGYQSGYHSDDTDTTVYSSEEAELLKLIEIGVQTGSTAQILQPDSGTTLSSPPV
Target sequence in this assay (P40337 whole entry): as the sequence (P40337 whole entry partner) above
The nature of data set [4]: Cytotoxicity against HUVEC cells assessed as inhibition of cell growth incubated for 72 hrs by MTT assay. Format: toxicity, cell-based. The following applies: human.
The subject of a further data set is HGC-27. The data set is described as follows: Antiproliferative activity against human HGC-27 cells assessed as inhibition of cell growth incubated for 72 hrs by MTT assay. It counts as functional, cell-based. The following applies: HGC-27, 72 h.
Data set [5] can be described thus: Cytotoxicity against HEK293T cells assessed as inhibition of cell growth incubated for 72 hrs by MTT assay. It counts as toxicity, cell-based, HEK-293T. The following applies: human.
Data set [6] has as its target T1, von Hippel-Lindau disease tumor suppressor/Vascular endothelial growth factor receptor 2. The data set is described as follows: PROTAC activity at VHL/VEGFR2 in human HGC-27 cells assessed as induction of VEGRF2 protein degradation at 1 uM incubated for 2 hrs by Western blot analysis. Format: cell-based.
Target sequence in this assay (P35968 20-1356 limits assumed): as the sequence (P35968 20-1356 limits assumed) above
Target sequence in this assay (P40337 whole entry partner): as the sequence (P40337 whole entry partner) above
Data set [7] has the same target. The data set is described as follows: PROTAC activity at VHL/VEGFR2 in human HGC-27 cells assessed as induction of VEGRF2 protein degradation at 10 uM incubated for 2 hrs by Western blot analysis. It counts as cell-based.
Target sequence in this assay (P35968 20-1356 limits assumed): as the sequence (P35968 20-1356 limits assumed) above
Target sequence in this assay (P40337 whole entry partner): as the sequence (P40337 whole entry partner) above
Data set [8] shares this target. The data set is described as follows: PROTAC activity at VHL/VEGFR2 in human HGC-27 cells assessed as induction of VEGRF2 protein degradation at 100 nM incubated for 2 hrs by Western blot analysis. It counts as cell-based.
Target sequence in this assay (P35968 20-1356 limits assumed): as the sequence (P35968 20-1356 limits assumed) above
Target sequence in this assay (P40337 whole entry partner): as the sequence (P40337 whole entry partner) above
Data set [9] has as its target Vascular endothelial growth factor receptor 2 (Homo sapiens, UniProt P35968). As to the kind of experiment: Inhibition of VEGFR2 (unknown origin) by caliper mobility shift assay.

Vascular endothelial growth factor receptor 2, sequence (P35968 whole entry): as the sequence (P35968 whole entry) above

The term IC50 denotes the concentration that inhibits the measured activity by half. As usually defined, the EC50 is the concentration needed to bring the measured effect to its halfway point. Regarding `Cc1ccc(NC(=O)Cn2cc(-c3ccc4c(NC(=O)c5ccc(NC(=O)CCCCCCCCCCC(=O)N[C@H](C(=O)N6C[C@H](O)C[C@H]6C(=O)NCc6ccc(-c7scnc7C)cc6)C(C)(C)C)cc5)n[nH]c4c3)cn2)cc1C(F)(F)F`, the IC50 at 72 h in data set [1] worked out at 31.8 µM; in data set [4] it was 17.6 µM; in data set [5], 9.45 µM. Also, the Emax in data set [2] was 42.9%. Also, the 50% effective concentration (EC50) in data set [3] was determined as 0.89 µM. Also, the half-inhibitory concentration (IC50) in the data set with HGC-27 turned out to be 5.13 µM.

Regarding `NS(=O)(=O)OC[C@@H]1C[C@@H](n2ccc3c(N[C@H]4CCc5ccccc54)ncnc32)C[C@@H]1O`, in data set [6], the outcome was inactive.

On to `CC(C)C[C@@H](C=O)NC(=O)[C@H](CC(C)C)NC(=O)[C@H](CC(C)C)NC(=O)OCc1ccccc1` (Cbz-Leu-Leu-Leu-aldehyde), for which the outcome in data set [7] was inactive.

For the compound `Cc1ccc(NC(=O)Cn2cc(-c3ccc4c(NC(=O)c5ccc(NC(=O)CCCCC(=O)N[C@H](C(=O)N6C[C@H](O)C[C@H]6C(=O)NCc6ccc(-c7scnc7C)cc6)C(C)(C)C)cc5)n[nH]c4c3)cn2)cc1C(F)(F)F`, the concentration for half-maximal inhibition (IC50) at 72 h was 46.4 µM in data set [1], 13 µM in data set [4] and 46.8 µM in [5]. Moreover, the Emax in data set [2] was 62.6%. The EC50 in data set [3] is 0.33 µM. In addition, the IC50 with HGC-27 stood at 10.1 µM.

On to `Cc1ccc(NC(=O)Cn2cc(-c3ccc4c(NC(=O)c5ccc(NC(=O)CCCCCCC(=O)N[C@H](C(=O)N6C[C@H](O)C[C@H]6C(=O)NCc6ccc(-c7scnc7C)cc6)C(C)(C)C)cc5)n[nH]c4c3)cn2)cc1C(F)(F)F`, for which the half-maximal inhibitory concentration (IC50) at 72 h came to 14.3 µM in data set [1], 4.13 µM in [4] and 17.9 µM in data set [5]. Further, the Emax in data set [2] came to 48%. For the same compound, the EC50 in [3] worked out at 0.28 µM. Moreover, in the data set with HGC-27, the concentration for half-maximal inhibition (IC50) is 4.36 µM.

With `Cc1ccc(NC(=O)Cn2cc(-c3ccc4c(NC(=O)c5ccc(N)cc5)n[nH]c4c3)cn2)cc1C(F)(F)F`, the IC50 at 72 h in data set [1] stood at 2.35 µM; in data set [4] it was 0.11 µM; in data set [5], 0.025 µM. Besides, the IC50 with HGC-27 is 2.12 µM; in [9], 0.0027 µM. For the same compound, in [8], the outcome was inactive.

As to `CC(=O)N[C@H](C(=O)N1C[C@H](O)C[C@H]1C(=O)NCc1ccc(-c2scnc2C)cc1)C(C)(C)C`, the result in data set [7] was inactive.

As for `Cc1ccc(NC(=O)Cn2cc(-c3ccc4c(NC(=O)c5ccc(N6CCNCC6)cc5)n[nH]c4c3)cn2)cc1C(F)(F)F`, the IC50 at 72 h in data set [1] is 1.32 µM; in data set [4], 1.7 µM; in [5], 3.57 µM. The half-inhibitory concentration (IC50) stood at 2.49 µM in the data set with HGC-27 and 0.00042 µM in data set [9].

For the origin of these results see ChEMBL document CHEMBL5247592, “Discovery of novel VEGFR-2-PROTAC degraders based on the localization of lysine residues via recruiting VHL for the treatment of gastric cancer” (Eur J Med Chem, 2022).
